According to patent US20070225278A1, “Methods for treating cognitive and other disorders” (priority 2006, published 2007):

How the values were obtained:
male Sprague-Dawley rats = test: Schedule-induced polydipsia (SIP) in rats; format: in vivo, rat
Source text: SIP is a model of obsessive-compulsive disorder. In this model, a food pellet is delivered once per minute for a two-hour period. A water bottle is available in the chamber. […] This excessive manifestation of a normal behavior (drinking) provides face validity to the model. […] Most importantly, clinically effective drugs for the treatment of obsessive-compulsive disorder decrease adjunctive drinking.
Animals: Male Sprague-Dawley rats weighing 275-325 g were individually housed in wire hanging cages. Each cage was equipped with a water spigot attached to an automated watering system which allow free access to water at all times.
Methods Rats were placed in an operant chamber (Med Associates) equipped with a pellet dispenser, a food receptacle, a houselight and a water bottle with 100 ml of water. Houselights were turned on in the chamber and a food pellet (Bioserve, 45 mg) was delivered on a fixed-time 60 sec schedule, such that one pellet was delivered each minute during a 2 hour experimental session. At the end of the session, water intake was measured.
Experiments to control for schedule and baseline water intake were conducted by placing 120 pellets in the food receptacle at the start of a 2-hour experimental session. Houselights were turned on, but no additional food pellets were delivered. At the end of the session, water intake was measured.
Dose calculations were based on active moiety.
Evaluation of Results Data were analyzed using a one-way ANOVA. Post hoc tests comparing vehicle to doses of Compound 1 were conducted using contrasts in a least squares model. An ED50 value (dose decreasing polydipsic intake to 50% of vehicle values) was calculated using nonlinear regression models.

[1] = tested on: acetylcholine in medial prefrontal cortex; test: In vivo microdialysis, acetylcholine in medial prefrontal cortex; conditions: 17 mg/kg s.c., rat
Method: Animals: Adult male Sprague-Dawley rats (Charles River, Wilmington, Mass.) weighing 280-350 g at the time of surgery were used for all microdialysis experiments. Adult male Long-Evans rats (Charles River, Wilmington, Mass.) weighing 180-220 g were used for NOR studies. Rats were housed individually for recognition memory studies. All animals had free access to food and water and were group housed in the AAALAC-accredited facility that was maintained on a 12 h light dark cycle (lights on at 0600 h) for at least 1 week prior to surgery or behavioral testing. All in vivo studies were performed in accordance to the ‘Guide for the Care and Use of Laboratory Animals’ as adopted and promulgated by the National Institutes of Health (Pub. 85-23, 1985). […]
Analysis of Acetylcholine Dialysate levels of acetylcholine were determined using LC/MS/MS. […]
Acetylcholine data were quantified using peak area against an internal standard and acquired using Masslynx software (Micromass, Beverly, Mass., USA). The mean of the concentration of baseline samples was calculated and denoted as 0%. All sample values were expressed as a percent change from this pre-injection mean baseline value (% change from baseline). Neurochemical data, excluding pre-injection values, were analyzed by a two-way analysis of variance (ANOVA) with repeated measures (time). […]

[2] = tested on: male Sprague Dawley CD rats; test: Reversal of DOI induced deficits in PPI; conditions: significant at 17 mg/kg IP (3-30 mg/kg tested); DOI 3 mg/kg IP
[3] = tested on: male Sprague Dawley CD rats; test: Reversal of MK-801 induced deficits in PPI; conditions: 3-30 mg/kg IP, MK-801 0.15 mg/kg SC

c1cc2c3c(c1)[C@H]1CCC[C@H]1N3CCNC2 [Compound 1]
change in excessive water intake (male Sprague-Dawley rats; 3 mg/kg ip, p=0.0003): −43%
change in excessive water intake (male Sprague-Dawley rats; 10 mg/kg ip, p<0.0001): −87%
ED50 (male Sprague-Dawley rats; Rattus norvegicus, ip, read-out: ED50 (dose decreasing polydipsic intake to 50% of vehicle values)): 3.16 mg/kg
rats that did not eat all of their food pellets during the 2-hour session (male Sprague-Dawley rats; highest dose (10 mg/kg ip)): 3 of 10
MED for decrease in adjunctive drinking (male Sprague-Dawley rats; ip, acute, 2 hour session): 3 mg/kg
maximal increase in acetylcholine with respect to baseline [1]: 63%
attenuation of DOI induced disruption in gating (PPI) [2]: significantly attenuated
reduction of the increase in startle produced by MK-801 ([3]; all doses tested): did significantly reduce
attenuation of MK-801 induced disruption in gating (PPI) ([3]; any dose tested): did not show an ability to significantly attenuate
